We go through 14 compounds from patent US4760148A, “5-aralkyl substituted 2H-benzotriazoles and stabilized compositions” (Ciba-Geigy Corporation, priority 1985, dated 1988).

Some results are limits rather than exact numbers.

The nature of series [1]: Solubility of benzotriazole stabilizers. The class given is physicochemical. Particulars: 25° C. From the text:
The benzotriazole stabilizers are classically materials with relatively low solubility in common organic solvents. This is particularly the case where the benzotriazole is substituted in the 2-phenyl ring with aralkyl groups intended to decrease stabilizer volatility during processing and use.

Series [2] is described as follows: Thermal gravimetric analysis (resistance to loss of benzotriazole stabilizers). Particulars: for Time (minutes) to 50% Weight Loss of Stabilizer: isothermal at 280° C.; for Time (minutes) to 50% Weight Loss of Stabilizer / Temperature °C. to 10% Weight Loss of Stabilizer / Temperature °C. to 50% Weight Loss of Stabilizer: 100 ml nitrogen/minute; for Temperature °C. to 10% Weight Loss of Stabilizer / Temperature °C. to 50% Weight Loss of Stabilizer: scanning at 10°(C.) per minute; for resistance to thermogravimetric loss: in words, compared with prior art benzotriazole F.
Method: A number of 2-aryl-2H-benzotriazole light stabilizers are subjected to thermal gravimetric analysis with a flow rate of 100 ml nitrogen/minute both isothermally at 280° C. to indicate the time in minutes to reach 50% weight loss of the stabilizer as well as in a scanning mode at a heating rate of 10° (C.) per minute to ascertain the temperature at which 10% and 50% weight loss of stabilizer are observed.

A short description of series [3]: Absorbance at 340nm (extinction coefficients). In kind it is physicochemical. Particulars: for Specific Extinction Coefficient a: equal weight basis. From the text:
The compounds of this invention show unanticipated enhancement of absorbance at 340nm as can be seem from a comparison of molar extinction coefficients E compared to state of the art compund F which lacks an aralkyl-substituent in the 5-position. In many cases the enhanced absorbance is also seen when products are compared i.e. in terms of Specific Extinction Coefficients a on an equal weight rather than molar basis.
Molar Extinction Coefficient E = a × molecular weight

Series [4] in a line: Stabilizer loss on milling into polycarbonate resin. Particulars: milling at 400° F. (240° C.), 15 minutes, spectrophotometric. The protocol: Samples of light stabilizers are incorporated into polycarbonate resin by milling at 400° F. ([…]) for a 15 minute period. […] At the end of the milling period the percent stabilizer loss is determined spectrophotometrically.
For series [5] the following is noted: in words, prior art patents; cited from earlier work.
For series [6] the following is noted: in words, prior art patents; cited from earlier work. This is another data set of the same source.
Series [7] in a line: Solubility of crystalline modification forms. Particulars: organic solvents including xylene and methyl amyl ketone. The class given is physicochemical.

For `CCC(C)(C)c1cc(-n2nc3ccccc3n2)c(O)c(C(C)(C)CC)c1` [Compound B, 2(2-hydroxy-3,5-di-tert-amylphenyl)-2H--benzotriazole], in series [1], the “Solubility in Butyl Cellosolve Acetate” value is listed as 19 grams per 100 grams solvent, the “Solubility in Heptane” value is on record as 23 grams per 100 grams solvent, the “Solubility in Methyl Amyl Ketone” value was 34 grams per 100 grams solvent and the “Solubility in Xylene” value is 70 grams per 100 grams solvent. In series [2], the “Time (minutes) to 50% Weight Loss of Stabilizer” value worked out at 0.9 min, the “Temperature °C. to 10% Weight Loss of Stabilizer” value came out at 200 °C and the “Temperature °C. to 50% Weight Loss of Stabilizer” value came to 233 °C.

As for `CC(C)(C)CC(C)(C)c1cc(-n2nc3ccc(C(C)(C)c4ccccc4)cc3n2)c(O)c(C(C)(C)CC(C)(C)C)c1` [Example 24, 5-alpha,alpha-Dimethylbenzyl-2-(2-hydroxy-3,5-di-tert-octylphenyl)-2H-benzotriazole], in series [2], the “Time (minutes) to 50% Weight Loss of Stabilizer” value is 40 min, the “Temperature °C. to 10% Weight Loss of Stabilizer” value is 308 °C and the “Temperature °C. to 50% Weight Loss of Stabilizer” value was determined as 348 °C. In series [3], this compound had a Molar Extinction Coefficient E of 17400 L/mol/cm and a Specific Extinction Coefficient a of 31 L/g/cm.

For `CCC(C)c1cc(-n2nc3ccccc3n2)c(O)c(C(C)(C)C)c1` (stereo not shown) [Stabilizer C, 2(2-hydroxy-3-tert-butyl-5-sec-butylphenyl)-2H--benzotriazole], in series [2], the “Time (minutes) to 50% Weight Loss of Stabilizer” value came out at 1.0 min, the “Temperature °C. to 10% Weight Loss of Stabilizer” value amounted to 210 °C and the “Temperature °C. to 50% Weight Loss of Stabilizer” value worked out at 247 °C.

Turning to `CC(C)(C)c1cc(-n2nc3ccc(C(C)(C)c4ccccc4)cc3n2)c(O)c(C(C)(C)C)c1` [Example 7, 5-alpha,alpha-Dimethylbenzyl-2-(2-hydroxy-3,5-di-tert-butylphenyl)-2H-benzotriazole], in series [1], the “Solubility in Butyl Cellosolve Acetate” value was 61 grams per 100 grams solvent, the “Solubility in Heptane” value is given as 97 grams per 100 grams solvent, the “Solubility in Methyl Amyl Ketone” value is listed as 128 grams per 100 grams solvent and the “Solubility in Xylene” value was 197 grams per 100 grams solvent. In addition, in series [2], the “resistance to thermogravimetric loss” value was “similar”, the “Time (minutes) to 50% Weight Loss of Stabilizer” value is 19 min, the “Temperature °C. to 10% Weight Loss of Stabilizer” value amounted to 295 °C and the “Temperature °C. to 50% Weight Loss of Stabilizer” value came to 338 °C. Also, the “% loss (by weight) of stabilizer” value in series [4] is listed as less than 3%. Besides, in series [3], the Molar Extinction Coefficient E is 19000 L/mol/cm and the Specific Extinction Coefficient a worked out at 43 L/g/cm.

For `CC(C)(C)CC(C)(C)c1ccc(O)c(-n2nc3ccccc3n2)c1` [Stabilizer D, 2-(2-hydroxy-5-tert-octylphenyl)-2H-benzotriazole], in series [2], the “Time (minutes) to 50% Weight Loss of Stabilizer” value is 1.9 min, the “Temperature °C. to 10% Weight Loss of Stabilizer” value is 225 °C and the “Temperature °C. to 50% Weight Loss of Stabilizer” value worked out at 260 °C. Further, in series [4], the “% loss (by weight) of stabilizer” value was 40%. Also, the “compatibility / performance in substrates” value in series [5] is “superior compatibility and performance in polyethylene”.

Consider `CC(C)(c1ccccc1)c1cc(-n2nc3ccc(Cc4ccccc4)cc3n2)c(O)c(C(C)(C)c2ccccc2)c1` [Example 26, 5-Benzyl-2-[2-hydroxy-3,5-di-(alpha,alpha-dimethylbenzyl)phenyl]-2H-benzotriazole], for which, in series [2], the “resistance to thermogravimetric loss” value is recorded as “very much more resistant to thermogravimetric loss”, the “Time (minutes) to 50% Weight Loss of Stabilizer” value stood at 3780 min, the “Temperature °C. to 10% Weight Loss of Stabilizer” value came to 360 °C and the “Temperature °C. to 50% Weight Loss of Stabilizer” value came out at 405 °C. For the same compound, in series [3], the Molar Extinction Coefficient E amounted to 18500 L/mol/cm and the Specific Extinction Coefficient a was 35 L/g/cm.

Turning to `Cc1cc(C(C)c2ccccc2)c(O)c(-n2nc3ccccc3n2)c1` (stereo not shown) [Stabilizer E, 2-[2-hydroxy-3-(1-phenylethyl)-5-methylphenyl]-2H-benzotriazole], in series [2], the “Time (minutes) to 50% Weight Loss of Stabilizer” value is 3.0 min, the “Temperature °C. to 10% Weight Loss of Stabilizer” value came out at 250 °C and the “Temperature °C. to 50% Weight Loss of Stabilizer” value amounted to 290 °C. The “compatibility / performance in substrates” value in series [5] was “better compatibility”. Moreover, the “resistance to loss by volatilization” value in series [6] was “better resistance to loss by volatilization during processing”.

On to `CC(C)(c1ccccc1)c1cc(-n2nc3ccc(C(C)(C)c4ccccc4)cc3n2)c(O)c(C(C)(C)c2ccccc2)c1` [Example 21, 5-alpha,alpha-Dimethylbenzyl-2-[2-hydroxy-3,5-di (alpha, alpha-dimethylbenzyl)phenyl]-2H-benzotriazole], for which, in series [2], the “resistance to thermogravimetric loss” value is on record as “very much more resistant to thermogravimetric loss”, the “Time (minutes) to 50% Weight Loss of Stabilizer” value was 2040 min, the “Temperature °C. to 10% Weight Loss of Stabilizer” value turned out to be 365 °C and the “Temperature °C. to 50% Weight Loss of Stabilizer” value stood at 412 °C. The “% loss (by weight) of stabilizer” value in series [4] is less than 3%. In addition, the “solubility of crystalline form melting at 114°-116° C. versus the other crystalline form” value in series [7] is given as “far greater solubility in many organic solvents”. In series [3], this compound came in with a Molar Extinction Coefficient E of 19500 L/mol/cm and a Specific Extinction Coefficient a of 28 L/g/cm.

In the case of `CC(C)(C)CC(C)(C)c1cc(-n2nc3ccccc3n2)c(O)c(C(C)(C)CC(C)(C)C)c1` [2-(2-hydroxy-3,5-di-tert-octylphenyl)-2H-benzotriazole], in series [5], the “solubility in substrates and processing solvents” value was “enhanced solubility in processing solvents and substrates”. Besides, the “resistance to loss by volatilization” value in series [6] was “did not have outstanding resistance to loss by volatilization”.

`CCC(C)(C)c1cc(-n2nc3ccc(C(C)(C)c4ccccc4)cc3n2)c(O)c(C(C)(C)CC)c1` [Example 23]: in series [1], the “Solubility in Butyl Cellosolve Acetate” value is given as > 100 grams per 100 grams solvent, the “Solubility in Heptane” value is listed as > 100 grams per 100 grams solvent, the “Solubility in Methyl Amyl Ketone” value is reported as > 100 grams per 100 grams solvent and the “Solubility in Xylene” value is recorded as > 100 grams per 100 grams solvent. Besides, in series [2], the “Time (minutes) to 50% Weight Loss of Stabilizer” value was found to be 33 min, the “Temperature °C. to 10% Weight Loss of Stabilizer” value came to 285 °C and the “Temperature °C. to 50% Weight Loss of Stabilizer” value is 325 °C. In series [3], the Molar Extinction Coefficient E stood at 19100 L/mol/cm and the Specific Extinction Coefficient a is 41 L/g/cm.

`CC(C)(c1ccccc1)c1cc(-n2nc3ccccc3n2)c(O)c(C(C)(C)c2ccccc2)c1` [Compound F, 2-[2-hydroxy-3,5-di-(alpha,alpha-dimethylbenzyl)phenyl]-2 H-benzotriazole]: in series [1], the “Solubility in Butyl Cellosolve Acetate” value is listed as 14 grams per 100 grams solvent, the “Solubility in Heptane” value was 1.5 grams per 100 grams solvent, the “Solubility in Methyl Amyl Ketone” value is 6 grams per 100 grams solvent and the “Solubility in Xylene” value was 16 grams per 100 grams solvent. In series [2], the “Time (minutes) to 50% Weight Loss of Stabilizer” value is 24 min, the “Temperature °C. to 10% Weight Loss of Stabilizer” value turned out to be 300 °C and the “Temperature °C. to 50% Weight Loss of Stabilizer” value stood at 340 °C. Moreover, the “% loss (by weight) of stabilizer” value in series [4] is reported as less than 3%. For the same compound, in series [5], the “solubility in substrates and processing solvents” value is “relatively low solubility in some substrates and processing solvents”. Further, in series [6], the “resistance to loss by volatilization” value was “superior resistance to loss from stabilized compositions during high temperature processing”. In series [3], this compound registered a Molar Extinction Coefficient E of 15100 L/mol/cm and a Specific Extinction Coefficient a of 34 L/g/cm.

In the case of `CC(C)(C)CC(C)(C)c1cc(-n2nc3ccccc3n2)c(O)c(C(C)(C)c2ccccc2)c1` [Compound G, 2-[2-hydroxy-3-(alpha,alpha-dimethylbenzyl)-5-tert-octylphenyl]-2H-benzotriazole], in series [1], the “Solubility in Butyl Cellosolve Acetate” value is 19 grams per 100 grams solvent, the “Solubility in Heptane” value was 9.7 grams per 100 grams solvent, the “Solubility in Methyl Amyl Ketone” value is reported as 33 grams per 100 grams solvent and the “Solubility in Xylene” value is 82 grams per 100 grams solvent. For the same compound, in series [2], the “Time (minutes) to 50% Weight Loss of Stabilizer” value is 7.4 min, the “Temperature °C. to 10% Weight Loss of Stabilizer” value was found to be 267 °C and the “Temperature °C. to 50% Weight Loss of Stabilizer” value amounted to 307 °C.

Take `CC(C)(C)CC(C)(C)c1cc(-n2nc3ccc(C(C)(C)c4ccccc4)cc3n2)c(O)c(C(C)(C)c2ccccc2)c1` [Example 22, 5-alpha,alpha-Dimethylbenzyl-2-(2-hydroxy-3-alpha,alpha-dimethylbenzyl-5-tert-octylphenyl)-2H-benzotriazole]: in series [2], the “Time (minutes) to 50% Weight Loss of Stabilizer” value was found to be 840 min, the “Temperature °C. to 10% Weight Loss of Stabilizer” value stood at 340 °C and the “Temperature °C. to 50% Weight Loss of Stabilizer” value was 387 °C. For the same compound, in series [3], the Molar Extinction Coefficient E was 18500 L/mol/cm and the Specific Extinction Coefficient a was determined as 33 L/g/cm.

Turning to `Cc1ccc(O)c(-n2nc3ccccc3n2)c1` [Stabilizer A, 2(2-hydroxy-5-methylphenyl)-2H--benzotriazole], in series [2], the “Time (minutes) to 50% Weight Loss of Stabilizer” value was determined as 0.75 min, the “Temperature °C. to 10% Weight Loss of Stabilizer” value amounted to 182 °C and the “Temperature °C. to 50% Weight Loss of Stabilizer” value is 215 °C.
